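Protocol summary: plate cells (96-well), add compound at 5 concentrations, incubate 48 h, interpolate endpoints linearly. Here, GI50 denotes the concentration required for 50% inhibition of growth.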 Active and inactive are the calls of the source. No stated cut-off is given here; in the data, active = GI50 up to about 1.1 µM and inactive = higher.
Key:
Assay in all cases: NCI anticancer screen, dose series, 48 h
[1] = system: HT-29
[2] = system: CCRF-CEM
[3] = system: SR
[4] = system: 786-0
[5] = system: HOP-62
[6] = system: HCT-15
[7] = system: SF-539
[8] = system: DMS-114
[9] = system: SNB-19
[10] = system: CAKI-1
[11] = system: DLD-1
[12] = system: MOLT-4
[13] = system: RXF 393
[14] = system: OVCAR-4
[15] = system: SNB-75
[16] = system: NCI-H226

| Structure (SMILES) | GI50 [1] | GI50 [2] | GI50 [3] | GI50 [4] | GI50 [5] | GI50 [6] [µM] | GI50 [7] | GI50 [8] | GI50 [9] | GI50 [10] | GI50 [11] | GI50 [12] | GI50 [13] | GI50 [14] | GI50 [15] | GI50 [16] |
| --- | --- | --- | --- | --- | --- | --- | --- | --- | --- | --- | --- | --- | --- | --- | --- | --- |
| COc1ccc(C[C@H](N)C(=O)N2C[C@@H](CO)C[C@@H](n3cnc4c(N(C)C)ncnc43)C2)cc1 | > 100 µM (inactive) | > 100 µM (inactive) | > 100 µM (inactive) | > 100 µM (inactive) | > 100 µM (inactive) | > 100 | > 100 µM (inactive) | > 100 µM (inactive) | > 100 µM (inactive) | > 100 µM (inactive) | > 100 µM (inactive) | > 100 µM (inactive) |  |  |  |  |
| CC(=O)Oc1c(C)n(CCCl)ccc1=O | > 100 µM (inactive) | 84.3 µM (inactive) | > 100 µM (inactive) | > 100 µM (inactive) | > 100 µM (inactive) | 34.8 |  | > 100 µM (inactive) | > 100 µM (inactive) | > 100 µM (inactive) | > 100 µM (inactive) | > 100 µM (inactive) | > 100 µM (inactive) | > 100 µM (inactive) | > 100 µM (inactive) | > 100 µM (inactive) |
| CC(=O)Oc1c2c(c(O)c3ccccc13)C(n1cnc3c(ncn3C3OC(CO)C4OC(C)(C)OC43)c1=N)CCC2 (stereo unspecified) | 13.2 µM (inactive) | 5.24 µM (inactive) |  | 14.5 µM (inactive) | 16.7 µM (inactive) | 14.8 | 18.2 µM (inactive) | 6.44 µM (inactive) | 16 µM (inactive) | 25.4 µM (inactive) | 13.1 µM (inactive) | 11.1 µM (inactive) | 18.3 µM (inactive) |  | 17.5 µM (inactive) | 23.3 µM (inactive) |
| FC1OC2OC1C(OCc1ccccc1)C(OCc1ccccc1)C2OCc1ccccc1 (stereo unspecified) | 34.8 µM (inactive) | 26.6 µM (inactive) |  | 43.2 µM (inactive) |  | 35.7 | > 100 µM (inactive) | 29.5 µM (inactive) | 84.9 µM (inactive) | 35.5 µM (inactive) | 37.9 µM (inactive) | 22.8 µM (inactive) | > 100 µM (inactive) | 34.1 µM (inactive) | 34.7 µM (inactive) | 77.3 µM (inactive) |
| CCN(CC)CC(C)C(=O)/C=C/c1ccc(C)cc1 (stereo unspecified) | 1.85 µM (inactive) | 3.05 µM (inactive) | 2.48 µM (inactive) | 1.88 µM (inactive) | 18.4 µM (inactive) | 2.53 | 2.05 µM (inactive) | 1.77 µM (inactive) | 16.7 µM (inactive) | 1.22 µM (inactive) | 1.67 µM (inactive) | 2.52 µM (inactive) | 2.19 µM (inactive) | 2.23 µM (inactive) | 1.66 µM (inactive) | 16.6 µM (inactive) |
| COc1cc(C=O)cc(O)c1O | 8.07 µM (inactive) | 38.9 µM (inactive) | 57.9 µM (inactive) | > 100 µM (inactive) | > 100 µM (inactive) | > 100 | > 100 µM (inactive) | > 100 µM (inactive) | > 100 µM (inactive) |  | > 100 µM (inactive) | > 100 µM (inactive) | > 10 µM (inactive) |  | > 100 µM (inactive) | > 100 µM (inactive) |
| CCSCN(C)c1nc(N(C)C)nc(N(C)C)n1 | 36.5 µM (inactive) | 48.1 µM (inactive) | 30 µM (inactive) | 36.7 µM (inactive) | 98.2 µM (inactive) | 42.5 | 36.1 µM (inactive) | 25.9 µM (inactive) | 78 µM (inactive) | 68.2 µM (inactive) | 83 µM (inactive) | 46.8 µM (inactive) | 14.2 µM (inactive) | 72.3 µM (inactive) | 59 µM (inactive) |  |
| O=C(Cc1nc2ccccc2o1)C(=O)Nc1ccccc1C(F)(F)F | > 100 µM (inactive) | > 100 µM (inactive) |  | > 100 µM (inactive) | > 100 µM (inactive) | > 100 | > 100 µM (inactive) | > 100 µM (inactive) | > 100 µM (inactive) | > 100 µM (inactive) | > 100 µM (inactive) |  | > 100 µM (inactive) | > 100 µM (inactive) | 63.1 µM (inactive) | > 100 µM (inactive) |
| Nc1nc(CC2(O)CCCCC2)cc(-c2ccccc2)n1 | 16.6 µM (inactive) | 27.5 µM (inactive) | 16.5 µM (inactive) | 21 µM (inactive) | > 49.7 µM (inactive) | > 43.9 | > 74 µM (inactive) | 23 µM (inactive) | 31.2 µM (inactive) | 51.2 µM (inactive) | 22.1 µM (inactive) | 16.7 µM (inactive) | > 40.3 µM (inactive) | 35.1 µM (inactive) | > 47.9 µM (inactive) | > 44.8 µM (inactive) |
| COc1ccc(C(=O)O)c(Br)c1OCc1ccccc1 | > 100 µM (inactive) | > 100 µM (inactive) |  | > 100 µM (inactive) | > 100 µM (inactive) | > 100 | > 100 µM (inactive) | > 100 µM (inactive) | > 100 µM (inactive) |  | > 100 µM (inactive) | > 100 µM (inactive) | > 100 µM (inactive) | > 100 µM (inactive) | > 100 µM (inactive) | > 100 µM (inactive) |
| C1CNCCNCCNCCN1 | 63.5 µM (inactive) | > 100 µM (inactive) | 51.6 µM (inactive) | > 100 µM (inactive) | > 100 µM (inactive) | > 10 | > 100 µM (inactive) | > 100 µM (inactive) | > 100 µM (inactive) |  | 41.3 µM (inactive) | 64.6 µM (inactive) | > 100 µM (inactive) |  | > 100 µM (inactive) | > 100 µM (inactive) |
| CC1=CC(/C=C(\C)CCCc2ccoc2)C2(OC(=O)C(C)=C2O)[C@H]2C1CC[C@@H]2C (stereo partly specified) | 34.3 µM (inactive) | 22.1 µM (inactive) |  | 14.6 µM (inactive) |  | 15.5 | 17.5 µM (inactive) | 22.1 µM (inactive) | 11.9 µM (inactive) | 32.1 µM (inactive) | 25.5 µM (inactive) | 19.2 µM (inactive) | 18.3 µM (inactive) |  | 33.7 µM (inactive) | 22.7 µM (inactive) |
| COc1ccc2ccc([Se]c3ccc4ccc(OC)cc4c3)cc2c1 | 50.1 µM (inactive) | 49.8 µM (inactive) |  | 49.7 µM (inactive) | > 100 µM (inactive) | > 100 | > 100 µM (inactive) | 64 µM (inactive) | 23.3 µM (inactive) | 38.7 µM (inactive) | > 100 µM (inactive) | 63.2 µM (inactive) | 70 µM (inactive) | 20.6 µM (inactive) | 26.6 µM (inactive) | 63.1 µM (inactive) |
| CCCCCc1cc(OC(=O)c2c(O)cc(OC)cc2CCCCC)cc(O)c1C(=O)O | 14.2 µM (inactive) | 20.7 µM (inactive) |  | 16.4 µM (inactive) | 16.4 µM (inactive) | 12.6 | 16.8 µM (inactive) | 14.7 µM (inactive) | 12.7 µM (inactive) | 19.1 µM (inactive) | 13 µM (inactive) | 23.5 µM (inactive) | 16 µM (inactive) | 20 µM (inactive) | 17.2 µM (inactive) |  |
| O=C1COc2cc3c(cc2N1)SCCC(=O)N3 | > 100 µM (inactive) | > 100 µM (inactive) | > 100 µM (inactive) | > 100 µM (inactive) | > 100 µM (inactive) |  | > 100 µM (inactive) | > 100 µM (inactive) | > 100 µM (inactive) | > 100 µM (inactive) | > 100 µM (inactive) | > 100 µM (inactive) |  | > 100 µM (inactive) | > 100 µM (inactive) | > 100 µM (inactive) |
| CCc1cccc(C)c1NC(=O)CCc1nnc2s/c(=C\c3cccc4ccccc34)c(=O)n12 | > 100 µM (inactive) | 92.9 µM (inactive) |  | > 100 µM (inactive) | > 100 µM (inactive) | 89.1 | > 100 µM (inactive) | 36 µM (inactive) | > 100 µM (inactive) | > 100 µM (inactive) | 60 µM (inactive) | 17.9 µM (inactive) | > 100 µM (inactive) | > 100 µM (inactive) | > 100 µM (inactive) | > 100 µM (inactive) |
| C[Si](C)(C)C1(Sc2ccccc2)SCCCS1 | 38.5 µM (inactive) | 14.8 µM (inactive) |  | 46.5 µM (inactive) | 29.7 µM (inactive) | 27.2 | 24.9 µM (inactive) | 25.8 µM (inactive) | 36.9 µM (inactive) | 54.6 µM (inactive) | 32 µM (inactive) | 15.1 µM (inactive) | 32.5 µM (inactive) | 57.1 µM (inactive) | 37.8 µM (inactive) |  |
| COc1cc2c(c3c1C=CCO3)C(=O)c1ccccc1C2=O | 70.1 µM (inactive) | 22 µM (inactive) | 28 µM (inactive) | 57.7 µM (inactive) | 41.3 µM (inactive) | 29.6 | 36.1 µM (inactive) | 53.1 µM (inactive) | 45.3 µM (inactive) |  | 24.2 µM (inactive) | 23.6 µM (inactive) | > 100 µM (inactive) |  | 51.1 µM (inactive) | 32.2 µM (inactive) |
| COC(=O)C(C#CCCCCC#CC(NC(=O)OCc1ccccc1)(C(=O)OC)C(F)(F)F)(NC(=O)OCc1ccccc1)C(F)(F)F (stereo unspecified) | > 100 µM (inactive) | > 100 µM (inactive) |  | > 100 µM (inactive) | > 100 µM (inactive) | > 100 | > 100 µM (inactive) | 28.1 µM (inactive) | > 100 µM (inactive) | > 100 µM (inactive) | > 100 µM (inactive) |  | > 100 µM (inactive) | > 100 µM (inactive) | > 100 µM (inactive) | > 100 µM (inactive) |
